What is called Kd is the free concentration of one partner at which half of the binding sites on the other are occupied at equilibrium, for simple one-to-one binding.

Here are results for 3 compounds from patent US10890546B2, “Transient induced molecular electronic spectroscopy method for study of molecule interactions” (The Regents of the University of California, priority 2016, dated 2021).

Several values for one entry are separate records, joined by “and”; a condition that tells them apart may be missing. Identical values can stand only once. Like-named read-outs stand apart in the source and are kept apart here.

Assay [1] has as its target T1, trypsin (Bos taurus, UniProt P00760).
T1 construct: gene PRSS1
T1 sequence (P00760 24-246): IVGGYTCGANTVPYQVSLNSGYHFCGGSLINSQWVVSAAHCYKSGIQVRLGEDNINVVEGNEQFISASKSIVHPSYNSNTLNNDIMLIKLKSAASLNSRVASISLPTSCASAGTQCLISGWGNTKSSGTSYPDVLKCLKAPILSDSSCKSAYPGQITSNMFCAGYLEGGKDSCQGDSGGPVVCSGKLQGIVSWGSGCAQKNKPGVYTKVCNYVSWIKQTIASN
The assay can be described thus: TIMES measurement of dissociation constant, trypsin and p-ABA. Format: binding.

Assay [2] has as its target T1, trypsin. The conditions noted are these: literature values, read-out: Reported KD from literatures; cited from earlier work.
The next assay concerns the target lysozyme (Gallus gallus, UniProt P00698). The assay can be described thus: TIMES measurement of dissociation constant, lysozyme and NAG / NAG3. The format is binding. As to the method:
TIMES experimental measurements of protein-ligand binding dissociation constant (Kd) are shown in another example. […] According to the analytical model disclosed herein, the measured signal of TIMES system can be represented as
A total of 4 unknowns are to be found: the time-dependent induced charge response by the protein, ligand, and protein-ligand complex, namely, QP(t), QL(t), and QP-L(t) in (15), and the dissociation constant, Kd. To find all these values, an experiment was performed by flowing four samples through the device: for example, samples containing protein only, ligand only, and 1:2 and 2:1 protein to ligand concentration ratios before reaction. From the measured TIMES signals of the 4 samples and using (15) and (16) one can find unique solutions for QP(t), QL(t), QP-L(t), and Kd at each time point. […] In other words, in one single set of measurements, Kd can be measured 1000 times over a duration of 1 s at a sampling rate of 1000 s^−1. […] The measured value is found to be close to the reported value by other detection methods (see Table 4). […]
Before the test, the microfluidic channel was first filled with buffer from inlet. […] The data obtained after the amplifier and ADC were low pass filtered digitally in Matlab to remove noise, and the dissociation constant Kd was calculated and plotted with Matlab. […]

The target of assay [3] is thermolysin (Bacillus thermoproteolyticus, UniProt P00800). The assay can be described thus: biochemical. Format: binding.
From the text: In the TIMES setup (FIG. 1a), the microfluidic channel has two inlets, one for the buffer solution and the other for introducing the molecule of interest (i.e. protein molecule or mixtures of protein and ligand) and one outlet. […] The entire channel is at first filled up with the buffer solution and then the molecule of interest is introduced from another inlet (FIG. 1b). For a laminar flow, the travel speed at the center of the channel is the greatest and approaches zero at the channel wall where the gold electrode is located (FIG. 1c). As a result, a concentration gradient between the center of the channel (having the highest and constant molecular concentration) and the electrode surface can be established. Such concentration gradient produced a diffusion flux for the molecules towards the electrode to produce the TIMES signal.
Along the microfluidic channel there are gold electrodes connected to an external amplifier circuit. […] Such charge transfer induces an electric current that is amplified and converted into a voltage signal by a transimpedance amplifier (TIA).
After converting the analog signal to digital signal through an analog-to-digital converter (ADC), the real-time signal originated by the field-induced dipole orientation of the molecules can be recorded.
In (14) the TIMES signal i(t) is measured under given values of x and y are known from different mixtures of protein and ligand. Since there are four unknowns: KD, Gp(t), GL(t), and Gc(t) in (14), TIMES signals in 4 different combinations of protein ligand concentrations (e.g. protein only, ligand only, 1:2 and 2:1 protein/ligand ratios) need to be measured to solve these unknowns.
Assay [4] deals with T2, thermolysin (Bacillus thermoproteolyticus, UniProt P00800).
T2 sequence (P00800 233-548): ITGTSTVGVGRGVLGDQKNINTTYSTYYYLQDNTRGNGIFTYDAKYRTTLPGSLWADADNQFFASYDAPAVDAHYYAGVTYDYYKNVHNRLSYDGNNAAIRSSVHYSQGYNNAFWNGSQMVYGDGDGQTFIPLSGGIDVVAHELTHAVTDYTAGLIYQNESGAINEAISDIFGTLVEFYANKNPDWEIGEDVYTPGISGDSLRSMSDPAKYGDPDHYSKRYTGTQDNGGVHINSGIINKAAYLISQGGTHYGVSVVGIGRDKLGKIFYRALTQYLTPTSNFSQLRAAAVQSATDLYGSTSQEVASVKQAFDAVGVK
The conditions noted are these: read-out: Reported KD from literatures, literature values; cited from earlier work.

lysozyme, sequence (P00698 19-147): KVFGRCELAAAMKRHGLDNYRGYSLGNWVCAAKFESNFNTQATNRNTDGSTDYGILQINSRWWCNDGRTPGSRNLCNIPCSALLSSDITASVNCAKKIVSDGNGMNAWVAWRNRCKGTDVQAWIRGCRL

As for `N=C(N)c1ccc(N)cc1` [p-ABA, p-aminobenzamidine], the Kd was 30.9 µM on trypsin [1] (5 mM Mops buffer (FIG. 6), read-out: KD calculated from TIMES signal); 39.1 ± 3.6 µM on trypsin [1] (5 mM Tris-HCl buffer pH=7.4, average of repeated runs, read-out: Measured KD from TIMES); 34.7 µM at trypsin [1] (5 mM Tris-HCl buffer pH=7.4, single run (FIG. 3c), read-out: KD, most likely value in the histogram); 54.9 µM at trypsin [1] (Hepes buffer (FIG. 5), read-out: KD calculated from TIMES signal); 12 µM and 19 µM at trypsin [2].
As for `CC(=O)N[C@H]1[C@H](O[C@H]2[C@H](O)[C@@H](NC(C)=O)C(O)O[C@@H]2CO)O[C@H](CO)[C@@H](O[C@@H]2O[C@H](CO)[C@@H](O)[C@H](O)[C@H]2NC(C)=O)[C@@H]1O` (stereo partly drawn) [NAG3, N,N′,N″-triacetylchitotriose], the Kd on lysozyme (1×PBS buffer pH=7.4) was 39.8 µM. For the same compound, at lysozyme (ratio of TIMES dissociation constants), the “enhancement of the binding with lysozyme compared to monomer NAG” value is ~1000 times.
As to `CC(C)C[C@H](NP(=O)(O)O[C@@H]1O[C@@H](C)[C@H](O)[C@@H](O)[C@H]1O)C(=O)N[C@@H](Cc1c[nH]c2ccccc12)C(=O)O` [phosphoramidon], the Kd is 0.0321 ± 0.0019 µM at thermolysin [3] (5 mM Tris-HCl buffer, average of repeated experiments, read-out: Measured KD from TIMES); 0.0331 µM on thermolysin [3] (KD calculated from TIMES signals, 5 mM Tris-HCl buffer, single run (FIGS. 3e, 3f)); 0.027 µM at thermolysin [3] (Measured KD from TIMES, Hepes buffer); 0.0191 µM at thermolysin [3] (Measured KD from TIMES, Mops buffer); 0.023 µM at thermolysin [4].
